# Where two headings read alike, the source gives them in different places.
# How the values were obtained:
# IRAK4 = IRAK4 (Homo sapiens (Human), UniProt Q9NWZ3); test: IRAK4 Inhibition Assay; format: biochemical; conditions: ATP 500 μM, read-out: IRAK4 IC50
# Experimental: The assays were performed in U-bottom 384-well plates. […] The reaction was initiated by the combination of IRAK4 with substrates and test compounds. The reaction mixture was incubated at room temperature for 60 min. and terminated by adding 45 μL of 35 mM EDTA to each sample. The reaction mixture was analyzed on the Caliper LABCHIP® 3000 (Caliper, Hopkinton, Mass.) by electrophoretic separation of the fluorescent substrate and phosphorylated product.
# [1] = system: TLR2 induced IL-6 in peripheral blood mononuclear cells (PBMCs); test: PBMC TLR2 Induced IL-6 Assay; format: cell-based, human; conditions: IL-6 by ELISA; for EC50: read-out: Cell EC50; for IC50: read-out: Cell IC50
# Procedure, shortened: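 Lipoteichoic acid at 10 µg/ml served as TLR2 stimulus for 5 hours, following a 30-minute compound pretreatment at 37° C. Cells were Ficoll-isolated human PBMCs, 250000 cells/well, cultured in RPMI plus 10% heat-inactivated FCS.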
# [2] = Homo sapiens, PBMC, human PBMCs, lipoteichoic acid stimulated
# [3] = PBMC TLR2 Induced IL-6 Assay, lipoteichoic acid stimulation
# [4] = Homo sapiens, PBMC, PBMC TLR2 Induced IL-6 Assay, lipoteichoic acid stimulation
# IRAK4, sequence (Q9NWZ3 whole entry, species assumed): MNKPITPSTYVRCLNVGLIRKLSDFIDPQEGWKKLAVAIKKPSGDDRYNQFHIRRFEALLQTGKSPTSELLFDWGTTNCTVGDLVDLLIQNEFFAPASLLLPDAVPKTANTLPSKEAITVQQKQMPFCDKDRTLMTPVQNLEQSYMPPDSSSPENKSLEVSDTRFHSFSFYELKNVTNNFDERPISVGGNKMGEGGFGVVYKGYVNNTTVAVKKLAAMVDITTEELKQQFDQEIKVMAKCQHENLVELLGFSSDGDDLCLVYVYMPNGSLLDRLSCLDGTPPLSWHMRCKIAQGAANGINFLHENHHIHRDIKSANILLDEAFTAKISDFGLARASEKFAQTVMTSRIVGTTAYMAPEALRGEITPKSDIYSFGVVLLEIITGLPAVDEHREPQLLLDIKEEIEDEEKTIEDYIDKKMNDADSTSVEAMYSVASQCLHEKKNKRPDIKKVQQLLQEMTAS
SMILES,IC50 (IRAK4; IRAK4 Inhibition Assay) [nM],"IC50 [1, 4] [nM]","EC50 [1, 4] [nM]",further results
CCNc1cc(-n2ncc3cc(C#N)cnc32)ncc1C(=O)NC[C@@H](F)C(C)(C)O [Example 568],–,–,–,"IC50 (IRAK4; IRAK4 0.6 nM): 8.9 nM; EC50 [1, 2]: 661 nM; IC50 [1, 2]: 1370 nM"
"CC(C)(O)[C@H](F)CNC(=O)c1cnc(-n2ccc3cc(C#N)cnc32)cc1NC1CCOCC1F (single isomer, unassigned) [Example 107]",1.8,–,–,"EC50 [1, 3]: 57 nM"
CCNc1cc(-n2ncc3cnc(N)nc32)ncc1C(=O)NC[C@@H](F)C(C)(C)O [Example 580],–,–,–,"IC50 (IRAK4; IRAK4 0.6 nM): 10.7 nM; IC50 [1, 2]: 487 nM"
C[C@H](F)CNc1cc(-n2ncc3cc(C#N)c(N)nc32)ncc1C(=O)NC[C@@H](F)C(C)(C)O [Example 590],–,–,–,"IC50 (IRAK4; IRAK4 0.6 nM): 1.9 nM; IC50 [1, 2]: 129 nM"
CC(C)CCNC(=O)c1cnc(-n2ncc3cc(C#N)c(N)nc32)cc1NC(C)C [Example 303],3.5,176,–,–
"CC[C@@H](C)Nc1cc(-n2ncc3cc(C#N)cnc32)ncc1C(=O)NCCC(C)(C)O [Example 193, (R)-4-(sec-Butylamino)-6-(5-cyano-1H-pyrazolo[3,4-b]pyridin-1-yl)-N-(3-hydroxy-3-methylbutyl)nicotinamide]",3.4,287,–,–
"CC(C)(O)[C@H](F)CNC(=O)c1cnc(-n2ncc3cc(C#N)cnc32)cc1NCC(F)(F)F [Example 147, (R)-6-(5-cyano-1H-pyrazolo[3,4-b]pyridin-1-yl)-N-(2-fluoro-3-hydroxy-3-methylbutyl)-4-((2,2,2-trifluoroethyl)amino)nicotinamide]",11.9,–,338,–
"CC(C)Nc1cc(-n2ccc3cc(C#N)cnc32)ncc1C(=O)NC[C@@H](F)C(C)NC(C)C (single isomer, unassigned) [Example 130]",2.3,–,–,"EC50 [1, 3]: 99 nM"
COC(C)(C)[C@H](F)CNC(=O)c1cnc(-n2ncc3cc(C#N)cnc32)cc1NC(C)C [Example 200],2.8,–,79,–
CC(C)Nc1cc(-n2ccc3cc(CNC(=O)CC4CCCC4)cnc32)ncc1C(=O)NC[C@@H](F)C(C)(C)O [Example 504],–,–,–,"IC50 (IRAK4; IRAK4 0.6 nM): 4.3 nM; IC50 [1, 2]: 262 nM"
CC(C)Nc1cc(-n2ccc3cc(C#N)cnc32)ncc1C(=O)NC12CCC(O)(CC1)C2 [Example 415],–,–,–,"IC50 (IRAK4; IRAK4 0.6 nM): 14.8 nM; EC50 [1, 2]: 286 nM"
CC(C)Nc1cc(-n2ncc3cc(C#N)cnc32)ncc1C(=O)NC1CCN(C(=O)C2CN(S(C)(=O)=O)C2)CC1 [Example 584],–,–,–,"IC50 (IRAK4; IRAK4 0.6 nM): 10 nM; EC50 [1, 2]: 209 nM; IC50 [1, 2]: 508 nM"
CC(C)Nc1cc(-n2ccc3cc(C#N)cnc32)ncc1C(=O)NC1CCN(S(C)(=O)=O)CC1 [Example 447],–,–,–,"IC50 (IRAK4; IRAK4 0.6 nM): 5.3 nM; EC50 [1, 2]: 92 nM"
CC(C)(O)[C@H](F)CNC(=O)c1cnc(-n2ncc3cc(C#N)cnc32)cc1N[C@@H]1CCN(C(=O)c2ccc(F)cc2F)C1 [Example 538],–,–,–,"IC50 (IRAK4; IRAK4 0.6 nM): 9.6 nM; IC50 [1, 2]: 698 nM"
"C[C@@H](CF)Nc1cc(-n2ccc3cc(C#N)cnc32)ncc1C(=O)NC[C@@H](F)C(C)(C)O [Example 117, 6-(5-cyano-1H-pyrrolo[2,3-b]pyridin-1-yl)-N—((R)-2-fluoro-3-hydroxy-3-methylbutyl)-4-(((S)-1-fluoropropan-2-yl)amino)nicotinamide]",2.4,–,28,–
"CNC(=O)[C@H]1CC[C@H](NC(=O)c2cnc(-n3ccc4cc(C#N)cnc43)cc2N[C@@H](C)CO)CC1 [Example 89, 6-(5-cyano-1H-pyrrolo[2,3-b]pyridin-1-yl)-4-(((S)-1-hydroxypropan-2-yl)amino)-N-((1r,4S)-4-(methylcarbamoyl)cyclohexyl)nicotinamide]",3.3,–,90,–
CC(C)Nc1cc(-n2ncc3cc(C#N)cnc32)ncc1C(=O)NC1CCN(S(=O)(=O)C(C)C)CC1 [Example 272],5.1,737,–,–
CC(C)Nc1cc(-n2ncc3cc(C#N)cnc32)ncc1C(=O)NCCc1ccc(N(S(C)(=O)=O)S(C)(=O)=O)cc1 [Example 269],3.6,171,–,–
CC(C)Nc1cc(-n2ccc3cc(CNC(=O)CC4CCCCC4)cnc32)ncc1C(=O)NC[C@@H](F)C(C)(C)O [Example 511],–,–,–,"IC50 (IRAK4; IRAK4 0.6 nM): 5.4 nM; IC50 [1, 2]: 47 nM"
CC(C)Nc1cc(-n2ncc3cc(C#N)cnc32)ncc1C(=O)NC[C@@H](F)C(O)(C1CC1)C1CC1 [Example 315],10.7,267,–,–
CC(C)Nc1cc(-n2ncc3cc(C#N)cnc32)ncc1C(=O)NCCC1(O)CCC(F)(F)CC1 [Example 279],6.5,247,–,–

SMILES,IC50 (IRAK4; IRAK4 Inhibition Assay) [nM],"IC50 [1, 4] [nM]","EC50 [1, 4] [nM]",further results
CC(C)Nc1cc(-n2ncc3cc(C#N)cnc32)ncc1C(=O)Nc1cnn(CC(F)F)c1 [Example 285],10,200,–,–
CC(C)(O)[C@H](F)CNC(=O)c1cnc(-n2ncc3cc(C#N)cnc32)cc1NCC1(F)CCC1 [Example 581],–,–,–,"IC50 (IRAK4; IRAK4 0.6 nM): 8.4 nM; IC50 [1, 2]: 227 nM"
CC(C)Nc1cc(-n2ncc3cc(C#N)cnc32)ncc1C(=O)N[C@H]1CCCN(S(C)(=O)=O)C1 [Example 246],19.8,–,353,–
CC(C)Nc1cc(-n2ncc3cc(C#N)cnc32)ncc1C(=O)NCCC(C)(C)NS(C)(=O)=O [Example 306],4.8,800,–,–
CC(F)(F)Cn1cc(Nc2cc(-n3ncc4cc(Cl)cnc43)ncc2C(=O)NC[C@@H](F)C(C)(C)O)cn1 [Example 369],1.9,32,–,–
CC(C)(O)[C@H](F)CNC(=O)c1cnc(-n2ncc3cc(Cl)cnc32)cc1Nc1cnn(CCCF)c1 [Example 367],1.3,41,–,–
CC(C)(F)Cn1cc(Nc2cc(-n3ncc4cc(C#N)cnc43)ncc2C(=O)NC[C@@H](F)C(C)(C)O)cn1 [Example 356],2.4,154,–,–
"CC(C)Nc1cc(-n2ncc3cc(C#N)cnc32)ncc1C(=O)NC1CCc2nc(N)sc2C1 (stereo not drawn) [Example 165, N-(2-amino-4,5,6,7-tetrahydrobenzo[d]thiazol-6-yl)-6-(5-cyano-1H-pyrazolo[3,4-b]pyridin-1-yl)-4-(isopropylamino)nicotinamide]",9.1,–,172,–
CC(C)(O)[C@H](F)CNC(=O)c1cnc(-n2cnc3cc(C#N)cnc32)cc1NC1CCOCC1 [Example 345],7.4,180,–,–
CC(O)CCNc1cc(-n2ccc3cc(C#N)cnc32)ncc1C(=O)NC[C@@H](F)C(C)(C)O (stereo partly drawn) [Example 422],–,–,–,"IC50 (IRAK4; IRAK4 0.6 nM): 2.3 nM; EC50 ([1]; human PBMCs, lipoteichoic acid stimulated): 4 nM"
"CC(C)(O)[C@H](F)CNC(=O)c1cnc(-n2ccc3cc(C#N)cnc32)cc1NC12CCC(O)(CC1)C2 [Example 16, (R)-6-(5-cyano-1H-pyrrolo[2,3-b]pyridin-1-yl)-N-(2-fluoro-3-hydroxy-3-methylbutyl)-4-((4-hydroxybicyclo[2.2.1]heptan-1-yl)amino)nicotinamide]",1.2,–,15,–
CC(C)(O)[C@H](F)CNC(=O)c1cnc(-n2cnc3cc(Cl)cnc32)cc1Nc1cnn(CC(F)F)c1 [Example 359],1.3,84,–,–
"CC(C)(O)CNc1cc(-n2ccc3cc(Cl)cnc32)ncc1C(=O)NC[C@@H](F)C(C)(C)O [Example 35, (R)-6-(5-chloro-1H-pyrrolo[2,3-b]pyridin-1-yl)-N-(2-fluoro-3-hydroxy-3-methylbutyl)-4-((2-hydroxy-2-methylpropyl)amino)nicotinamide]",2.1,452,117,–
"CC(C)Nc1cc(-n2ncc3cc(C#N)cnc32)ncc1C(=O)NC[C@@H](F)C(O)C(C)C (single isomer, unassigned) [Example 232]",2.3,211,33,–
CC(C)(O)[C@H](F)CNC(=O)c1cnc(-n2ncc3cc(C#N)cnc32)cc1N[C@H]1CC[C@H](NC(=O)C2CC2)CC1 [Example 623],–,–,–,"IC50 (IRAK4; IRAK4 0.6 nM): 5.2 nM; IC50 [1, 2]: 484 nM"
CC(C)(O)[C@H](F)CNC(=O)c1cnc(-n2ccc3cc(C#N)cnc32)cc1Nc1ccc(-n2cccn2)cc1 [Example 67],1.7,–,102,–
"CC(C)(O)[C@H](F)CNC(=O)c1cnc(-n2ccc3cc(C#N)cnc32)cc1NCC1(F)CCC1 [Example 65, (R)-6-(5-cyano-1H-pyrrolo[2,3-b]pyridin-1-yl)-N-(2-fluoro-3-hydroxy-3-methylbutyl)-4-(((1-fluorocyclobutyl)methyl)amino) nicotinamide]",1.5,–,100,–
"CC(C)(O)[C@H](F)CNC(=O)c1cnc(-n2ccc3cc(C#N)cnc32)cc1Nc1cccc(S(N)(=O)=O)c1 [Example 50, (R)-6-(5-cyano-1H-pyrrolo[2,3-b]pyridin-1-yl)-N-(2-fluoro-3-hydroxy-3-methylbutyl)-4-((3-sulfamoylphenyl)amino)nicotinamide]",1.9,–,58,–
"CC(C)(O)[C@H](F)CNC(=O)c1cnc(-n2ccc3cc(C#N)cnc32)cc1N[C@@H]1CCC[C@H]1O [Example 30, 6-(5-cyano-1H-pyrrolo[2,3-b]pyridin-1-yl)-N—((R)-2-fluoro-3-hydroxy-3-methylbutyl)-4-(((1R,2R)-2-hydroxycyclopentyl)amino)nicotinamide]",2.2,184,101,–
CC[C@@H](C)Nc1cc(-n2ncc3cc(C#N)cnc32)ncc1C(=O)NC[C@@H](F)C(C)(C)O [Example 283],2.8,135,–,–
